Measured values from ChEMBL document CHEMBL2021814, “Fragment-based and structure-guided discovery and optimization of Rho kinase inhibitors” (J Med Chem, 2012).

Key:
[1] = molecular target: Rho-associated protein kinase 2 (Homo sapiens, UniProt O75116); assay: Inhibition of ROCK2 after 1 hr by FRET-based enzyme-coupled assay
[2] = molecular target: Rho-associated protein kinase 1 (Homo sapiens, UniProt Q13464); assay: Inhibition of human His-puritin-tagged ROCK1 expressed in Sf9 cells after 1 hr by FRET-based enzyme-coupled assay
Chain of Rho-associated protein kinase 1 (Q13464 whole entry): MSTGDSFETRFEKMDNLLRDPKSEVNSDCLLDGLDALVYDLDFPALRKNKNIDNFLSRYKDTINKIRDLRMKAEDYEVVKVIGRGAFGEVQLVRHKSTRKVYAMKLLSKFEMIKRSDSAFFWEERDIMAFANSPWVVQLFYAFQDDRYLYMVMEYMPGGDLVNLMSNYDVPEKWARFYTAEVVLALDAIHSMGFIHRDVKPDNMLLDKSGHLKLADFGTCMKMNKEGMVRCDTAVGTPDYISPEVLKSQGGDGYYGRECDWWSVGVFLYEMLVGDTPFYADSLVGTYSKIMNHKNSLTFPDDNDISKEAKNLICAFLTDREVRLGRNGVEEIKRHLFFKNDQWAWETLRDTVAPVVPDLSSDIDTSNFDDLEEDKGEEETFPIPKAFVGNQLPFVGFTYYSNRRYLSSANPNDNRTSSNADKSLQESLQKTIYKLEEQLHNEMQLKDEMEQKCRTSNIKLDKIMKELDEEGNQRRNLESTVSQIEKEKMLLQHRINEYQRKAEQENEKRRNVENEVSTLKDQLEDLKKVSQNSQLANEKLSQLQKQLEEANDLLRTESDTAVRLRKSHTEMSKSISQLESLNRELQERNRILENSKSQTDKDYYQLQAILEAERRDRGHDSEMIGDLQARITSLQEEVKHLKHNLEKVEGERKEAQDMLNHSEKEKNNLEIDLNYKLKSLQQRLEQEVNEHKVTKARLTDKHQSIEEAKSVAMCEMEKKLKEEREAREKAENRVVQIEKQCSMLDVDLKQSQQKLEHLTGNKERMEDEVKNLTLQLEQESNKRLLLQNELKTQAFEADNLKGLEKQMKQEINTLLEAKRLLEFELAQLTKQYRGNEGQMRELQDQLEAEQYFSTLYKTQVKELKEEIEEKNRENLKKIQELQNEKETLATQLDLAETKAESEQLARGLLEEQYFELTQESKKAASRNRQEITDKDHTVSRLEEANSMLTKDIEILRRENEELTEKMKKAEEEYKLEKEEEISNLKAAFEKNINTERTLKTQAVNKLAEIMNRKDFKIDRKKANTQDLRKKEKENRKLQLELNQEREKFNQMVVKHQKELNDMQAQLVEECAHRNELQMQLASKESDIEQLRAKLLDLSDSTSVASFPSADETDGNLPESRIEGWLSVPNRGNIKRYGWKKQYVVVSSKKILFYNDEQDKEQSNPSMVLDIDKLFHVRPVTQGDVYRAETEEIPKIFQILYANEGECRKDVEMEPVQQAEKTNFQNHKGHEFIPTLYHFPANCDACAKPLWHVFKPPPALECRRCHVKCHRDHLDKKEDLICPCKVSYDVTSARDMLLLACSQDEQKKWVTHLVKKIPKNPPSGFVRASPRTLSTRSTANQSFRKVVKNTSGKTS

Chain of Rho-associated protein kinase 2 (O75116 whole entry): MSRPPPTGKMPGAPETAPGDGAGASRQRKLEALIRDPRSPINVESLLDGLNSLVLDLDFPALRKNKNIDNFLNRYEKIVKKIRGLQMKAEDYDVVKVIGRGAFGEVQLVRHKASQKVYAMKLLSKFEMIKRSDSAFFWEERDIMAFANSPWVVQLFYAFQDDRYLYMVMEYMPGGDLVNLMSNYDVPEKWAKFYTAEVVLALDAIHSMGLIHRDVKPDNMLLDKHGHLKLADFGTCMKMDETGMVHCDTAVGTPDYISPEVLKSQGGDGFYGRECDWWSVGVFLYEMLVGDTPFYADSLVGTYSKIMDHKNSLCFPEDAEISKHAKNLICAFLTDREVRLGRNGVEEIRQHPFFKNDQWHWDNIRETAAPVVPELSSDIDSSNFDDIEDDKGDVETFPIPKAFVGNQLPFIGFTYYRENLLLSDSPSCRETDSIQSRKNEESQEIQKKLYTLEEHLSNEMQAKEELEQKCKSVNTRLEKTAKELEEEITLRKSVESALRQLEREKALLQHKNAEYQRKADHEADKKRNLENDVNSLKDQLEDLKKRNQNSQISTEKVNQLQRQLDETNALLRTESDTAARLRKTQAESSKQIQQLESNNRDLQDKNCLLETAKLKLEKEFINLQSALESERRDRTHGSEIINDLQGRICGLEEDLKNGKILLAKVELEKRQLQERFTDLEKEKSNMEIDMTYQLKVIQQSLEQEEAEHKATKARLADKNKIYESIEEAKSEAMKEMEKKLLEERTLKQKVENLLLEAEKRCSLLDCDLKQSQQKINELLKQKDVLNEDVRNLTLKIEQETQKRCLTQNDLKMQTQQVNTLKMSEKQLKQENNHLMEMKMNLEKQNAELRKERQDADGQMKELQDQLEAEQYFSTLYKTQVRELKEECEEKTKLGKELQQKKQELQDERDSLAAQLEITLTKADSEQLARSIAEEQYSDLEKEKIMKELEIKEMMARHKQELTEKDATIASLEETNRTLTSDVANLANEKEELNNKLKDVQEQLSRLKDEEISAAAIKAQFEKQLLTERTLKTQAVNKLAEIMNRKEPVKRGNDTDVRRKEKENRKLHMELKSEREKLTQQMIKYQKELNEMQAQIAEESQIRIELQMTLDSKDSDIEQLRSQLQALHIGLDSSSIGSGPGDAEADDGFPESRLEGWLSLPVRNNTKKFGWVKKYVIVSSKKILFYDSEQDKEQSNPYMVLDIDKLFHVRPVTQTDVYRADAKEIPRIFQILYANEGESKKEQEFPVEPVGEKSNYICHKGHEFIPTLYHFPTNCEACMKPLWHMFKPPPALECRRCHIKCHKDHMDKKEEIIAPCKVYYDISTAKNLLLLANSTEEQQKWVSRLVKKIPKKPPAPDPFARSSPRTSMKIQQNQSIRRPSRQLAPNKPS

In the case of `O=C(Nc1ccncc1)c1cnccc1-c1ccc(F)cc1`, the IC50 [1] is reported as over 400 µM and the IC50 [2] is reported as over 400 µM.
`O=C(Nc1ccncc1)c1cncc(-c2ccc(F)cc2)c1` gave an IC50 [1] of over 400 µM and an IC50 [2] of over 400 µM.
